Reference: patent publication US6706663B2, “Herbicidal 3-heterocyclic substituted benzisothiazole and benzisoxazole compounds” (Wyeth, priority 2000, dated 2004)

Legend:
[1] = tested on: ABUTH (Abutilon theophrasti); experiment: Postemergence herbicidal evaluation; assay type: in vivo, Medic.
Procedure, shortened: (§1)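 Seedlings grown for about two weeks were sprayed postemergence and then kept under standard greenhouse care. Injury was rated visually 4–5 weeks after treatment on a 0–9 scale against untreated controls, and ratings from repeat tests were averaged.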

[2] = tested on: CYPSE (Cyperus serotinus); experiment: Flooded paddy, preemergence weed control; assay type: in vivo, Rottb.; conditions: rated 3-4 weeks after treatment, 0-9 rating scale
Procedure, shortened: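 Seeds or propagules were planted 0.5 cm deep in silt loam and flooded to 1.5–3 cm. Compounds in 50/50 v/v aqueous/acetone were pipetted into the flood water at about 0.0080 to 0.1250 kg/ha. After 3–4 weeks in the greenhouse, effect was rated visually on a 0–9 scale versus untreated control.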

[3] = tested on: ZEAMX (Corn, Field); experiment: Postemergence herbicidal evaluation; assay type: in vivo, Zea mays, L.
Procedure, shortened: as §1

[4] = tested on: SAGPY (Sagittaria pygmaea); experiment: Flooded paddy, preemergence weed control; assay type: in vivo, L.; conditions: rated 3-4 weeks after treatment, 0-9 rating scale
Procedure, shortened: (§2)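 Preemergence, flooded: propagules planted at 0.5 cm depth in silt loam, water level maintained at 1.5 to 3 cm over soil, containers kept on greenhouse benches. Activity scored 0-9 by eye relative to a control plant.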

[5] = tested on: ECHORC (Echinochloa oryzoides); experiment: Flooded paddy, preemergence weed control; assay type: in vivo, Echinochloa oryzoides (Ard.) Fritsch.; conditions: rated 3-4 weeks after treatment, 0-9 rating scale
Procedure, shortened: as §2

[6] = tested on: TRZAWR (Wheat, Winter, cv Riband); experiment: Preemergence herbicidal evaluation; assay type: in vivo, Triticum aestivum; conditions: preemergence, rated 4-5 weeks after treatment
Procedure, shortened: (§3)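 Greenhouse preemergence test: freshly planted cups were sprayed once with an aqueous acetone solution of compound. Injury was judged visually on a 0–9 scale relative to a control, four to five weeks later.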

[7] = tested on: ORYSAT (Rice, Tebonnet); experiment: Postemergence herbicidal evaluation; assay type: in vivo, Oryza sativa, (L.) Tebonnet
Procedure, shortened: as §1

[8] = tested on: IPOHE (Ipomoea hederacea); experiment: Postemergence herbicidal evaluation; assay type: in vivo, (L.) Jacq.
Procedure, shortened: as §1

[9] = tested on: ORYSAT (Rice, Tebonnet); experiment: Flooded paddy, post-transplant rice tolerance; assay type: in vivo, Oryza sativa, (L.) Tebonnet; conditions: flooded paddy, post-transplant rice, rated 3-4 weeks after treatment, 0-9 rating scale
Procedure, shortened: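 Two ten-day-old Tebonnet rice seedlings transplanted into silt loam, then flooded with water held at 1.5–3 cm above soil; herbicide applied post-transplant. Plants kept in greenhouse and rated visually 0–9 versus untreated control for stand, vigor, malformation, size and chlorosis.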

[10] = tested on: ECHCG (Echinochloa crus-galli); experiment: Postemergence herbicidal evaluation; assay type: in vivo, (L.) Beau
Procedure, shortened: as §1

[11] = tested on: ABUTH (Abutilon theophrasti); experiment: Preemergence herbicidal evaluation; assay type: in vivo, Medic.; conditions: preemergence, rated 4-5 weeks after treatment
[12] = tested on: TRZAWR (Wheat, Winter, cv Riband); experiment: Postemergence herbicidal evaluation; assay type: in vivo, Triticum aestivum
Procedure, shortened: as §1

[13] = tested on: CASOB (Cassia obtusifolia); experiment: Postemergence herbicidal evaluation; assay type: in vivo, L.
Procedure, shortened: as §1

[14] = tested on: AMBEL (Ambrosia artemisifolia); experiment: Postemergence herbicidal evaluation; assay type: in vivo, L.
Procedure, shortened: as §1

[15] = tested on: CHEAL (Chenopodium album); experiment: Postemergence herbicidal evaluation; assay type: in vivo, L.
Procedure, shortened: as §1

[16] = tested on: CASOB (Cassia obtusifolia); experiment: Preemergence herbicidal evaluation; assay type: in vivo, L.; conditions: preemergence, rated 4-5 weeks after treatment
Procedure, shortened: as §3

[17] = tested on: AMBEL (Ambrosia artemisifolia); experiment: Preemergence herbicidal evaluation; assay type: in vivo, L.; conditions: preemergence, rated 4-5 weeks after treatment
Procedure, shortened: as §3

[18] = tested on: CHEAL (Chenopodium album); experiment: Preemergence herbicidal evaluation; assay type: in vivo, L.; conditions: preemergence, rated 4-5 weeks after treatment
Procedure, shortened: as §3

[19] = tested on: ORYSAT (Rice, Tebonnet); experiment: Preemergence herbicidal evaluation; assay type: in vivo, Oryza sativa, (L.) Tebonnet; conditions: preemergence, rated 4-5 weeks after treatment

## Cc1nnc(-c2nsc3ccc(-n4c(=O)cc(C(F)(F)F)n(C)c4=O)cc23)s1 [Compound 17, 1-methyl-3-[3-(5-methyl-1,3,4-thiadiazol-2-yl)-1,2-benzisothiazol-5-yl]-6-(trifluoromethyl)uracil]
[1]; rate 0.0320 kg/ha
  Postemergence herbicidal rating, ABUTH: 9.0
[1]; rate 0.0620 kg/ha
  Postemergence herbicidal rating, ABUTH: 9.0
[1]; rate 0.1250 kg/ha
  Postemergence herbicidal rating, ABUTH: 9.0
[1]; rate 0.2500 kg/ha
  Postemergence herbicidal rating, ABUTH: 9.0
[2]; rate 0.0080 kg/ha
  herbicidal rating, CYPSE: 0.0
[2]; rate 0.0320 kg/ha
  herbicidal rating, CYPSE: 3.0
[2]; rate 0.1250 kg/ha
  herbicidal rating, CYPSE: 4.5
[3]; rate 0.0320 kg/ha
  Postemergence herbicidal rating, ZEAMX: 4.0
[3]; rate 0.0620 kg/ha
  Postemergence herbicidal rating, ZEAMX: 4.0
[3]; rate 0.1250 kg/ha
  Postemergence herbicidal rating, ZEAMX: 4.0
[3]; rate 0.2500 kg/ha
  Postemergence herbicidal rating, ZEAMX: 5.0
[4]; rate 0.0080 kg/ha
  herbicidal rating, SAGPY: 0.0
[4]; rate 0.0320 kg/ha
  herbicidal rating, SAGPY: 2.5
[4]; rate 0.1250 kg/ha
  herbicidal rating, SAGPY: 5.5
[5]; rate 0.0080 kg/ha
  herbicidal rating, ECHORC: 0.0
[5]; rate 0.0320 kg/ha
  herbicidal rating, ECHORC: 3.0
[5]; rate 0.1250 kg/ha
  herbicidal rating, ECHORC: 6.0
[6]; Rate 0.0620 kg/ha
  TRZAWR preemergence herbicidal rating: 0.0
[6]; Rate 0.1250 kg/ha
  TRZAWR preemergence herbicidal rating: 0.0
[6]; Rate 0.2500 kg/ha
  TRZAWR preemergence herbicidal rating: 5.0
[7]; rate 0.0320 kg/ha
  Postemergence herbicidal rating, ORYSAT: 1.0
[7]; rate 0.0620 kg/ha
  Postemergence herbicidal rating, ORYSAT: 1.5
[7]; rate 0.1250 kg/ha
  Postemergence herbicidal rating, ORYSAT: 2.0
[7]; rate 0.2500 kg/ha
  Postemergence herbicidal rating, ORYSAT: 7.5
[8]; rate 0.0320 kg/ha
  Postemergence herbicidal rating, IPOHE: 9.0
[8]; rate 0.0620 kg/ha
  Postemergence herbicidal rating, IPOHE: 9.0
[8]; rate 0.1250 kg/ha
  Postemergence herbicidal rating, IPOHE: 9.0
[8]; rate 0.2500 kg/ha
  Postemergence herbicidal rating, IPOHE: 9.0
[9]; rate 0.0080 kg/ha
  herbicidal rating, ORYSAT (rice tolerance): 0.0
[9]; rate 0.0320 kg/ha
  herbicidal rating, ORYSAT (rice tolerance): 2.5
[9]; rate 0.1250 kg/ha
  herbicidal rating, ORYSAT (rice tolerance): 4.5
[10]; rate 0.0320 kg/ha
  Postemergence herbicidal rating, ECHCG: 0.0
[10]; rate 0.0620 kg/ha
  Postemergence herbicidal rating, ECHCG: 0.0
[10]; rate 0.1250 kg/ha
  Postemergence herbicidal rating, ECHCG: 0.0
[10]; rate 0.2500 kg/ha
  Postemergence herbicidal rating, ECHCG: 0.0
[11]; Rate 0.0620 kg/ha
  ABUTH preemergence herbicidal rating: 9.0
[11]; Rate 0.1250 kg/ha
  ABUTH preemergence herbicidal rating: 9.0
[11]; Rate 0.2500 kg/ha
  ABUTH preemergence herbicidal rating: 9.0
[12]; rate 0.0320 kg/ha
  Postemergence herbicidal rating, TRZAWR: 3.0
[12]; rate 0.0620 kg/ha
  Postemergence herbicidal rating, TRZAWR: 3.0
[12]; rate 0.1250 kg/ha
  Postemergence herbicidal rating, TRZAWR: 3.0
[12]; rate 0.2500 kg/ha
  Postemergence herbicidal rating, TRZAWR: 3.5
[13]; rate 0.0320 kg/ha
  Postemergence herbicidal rating, CASOB: 0.0
[13]; rate 0.0620 kg/ha
  Postemergence herbicidal rating, CASOB: 0.0
[13]; rate 0.1250 kg/ha
  Postemergence herbicidal rating, CASOB: 2.0
[13]; rate 0.2500 kg/ha
  Postemergence herbicidal rating, CASOB: 2.0
[14]; rate 0.0320 kg/ha
  Postemergence herbicidal rating, AMBEL: 4.0
[14]; rate 0.0620 kg/ha
  Postemergence herbicidal rating, AMBEL: 9.0
[14]; rate 0.1250 kg/ha
  Postemergence herbicidal rating, AMBEL: 9.0
[14]; rate 0.2500 kg/ha
  Postemergence herbicidal rating, AMBEL: 9.0
[15]; rate 0.0320 kg/ha
  Postemergence herbicidal rating, CHEAL: 3.0
[15]; rate 0.0620 kg/ha
  Postemergence herbicidal rating, CHEAL: 3.0
[15]; rate 0.1250 kg/ha
  Postemergence herbicidal rating, CHEAL: 4.0
[15]; rate 0.2500 kg/ha
  Postemergence herbicidal rating, CHEAL: 9.0
[16]; Rate 0.0620 kg/ha
  CASOB preemergence herbicidal rating: 0.0
[16]; Rate 0.1250 kg/ha
  CASOB preemergence herbicidal rating: 0.0
[16]; Rate 0.2500 kg/ha
  CASOB preemergence herbicidal rating: 3.0
[17]; Rate 0.0620 kg/ha
  AMBEL preemergence herbicidal rating: 4.0
[17]; Rate 0.1250 kg/ha
  AMBEL preemergence herbicidal rating: 5.0
[17]; Rate 0.2500 kg/ha
  AMBEL preemergence herbicidal rating: 9.0
[18]; Rate 0.0620 kg/ha
  CHEAL preemergence herbicidal rating: 9.0
[18]; Rate 0.1250 kg/ha
  CHEAL preemergence herbicidal rating: 9.0
[18]; Rate 0.2500 kg/ha
  CHEAL preemergence herbicidal rating: 9.0
[19]; Rate 0.0620 kg/ha
  ORYSAT preemergence herbicidal rating: 0.0
[19]; Rate 0.1250 kg/ha
  ORYSAT preemergence herbicidal rating: 0.0
[19]; Rate 0.2500 kg/ha
  ORYSAT preemergence herbicidal rating: 1.0
